Data as given in patent US5739284A, “Compositions corresponding to a high-affinity glutamate transporter molecule and methods for making and using same” (Brigham and Women's Hospital, Inc., priority 1995, dated 1998).
Where two headings read alike, the source gives them in different places.

Experiments:
[1] = tested on: excitatory amino acid carrier protein derived from rabbit; experiment: effect of external K+ on current evoked by L-glutamate; format: cell-based; conditions: 50 μM L-glutamate, 0-50 mM K+, -30 mV, FIG. 10
Experimental: (§1) Xenopus laevis oocytes were injected with cRNA (25 ng/oocyte) encoding for the excitatory amino acid carrier protein derived from rabbit as described in Example 1. Electrophysiological measurements were performed 3-4 days after injection using a conventional two-microelectrode voltage clamp method (Axoclamp-2A, Axon Instruments, CA).
The bath medium were prepared containing potassium ion concentrations in concentrations ranging from 0 mM-50 mM. The bath media were held at a holding potential of -30 mV, and normalized to the current measured on the same oocyte (the value at 0 mM K^+ is 100%). Consecutive current measurements were made on single oocytes after changing to bath medium containing the appropriate K^+ concentration. […] The bath medium contained z mM KCl (where z=0-50), 50-z mM choline Cl, 50 mM NaCl, 1.8 mM CaCl2, 1.0 mM MgCl2, 10 mM BaCl2, 5 mM HEPES pH 7.4.

[2] = target: T1, rabbit derived excitatory amino acid carrier (Oryctolagus cuniculus, UniProt P31597); experiment: inhibition of current evoked by L-glutamate in oocytes expressing rabbit EAAC1; format: cell-based
T1 construct: ID No. 4; expressed in transfected cells; host or cells: Xenopus laevis oocytes injected with cRNA (25 ng/oocyte)
T1 sequence (P31597 1-524): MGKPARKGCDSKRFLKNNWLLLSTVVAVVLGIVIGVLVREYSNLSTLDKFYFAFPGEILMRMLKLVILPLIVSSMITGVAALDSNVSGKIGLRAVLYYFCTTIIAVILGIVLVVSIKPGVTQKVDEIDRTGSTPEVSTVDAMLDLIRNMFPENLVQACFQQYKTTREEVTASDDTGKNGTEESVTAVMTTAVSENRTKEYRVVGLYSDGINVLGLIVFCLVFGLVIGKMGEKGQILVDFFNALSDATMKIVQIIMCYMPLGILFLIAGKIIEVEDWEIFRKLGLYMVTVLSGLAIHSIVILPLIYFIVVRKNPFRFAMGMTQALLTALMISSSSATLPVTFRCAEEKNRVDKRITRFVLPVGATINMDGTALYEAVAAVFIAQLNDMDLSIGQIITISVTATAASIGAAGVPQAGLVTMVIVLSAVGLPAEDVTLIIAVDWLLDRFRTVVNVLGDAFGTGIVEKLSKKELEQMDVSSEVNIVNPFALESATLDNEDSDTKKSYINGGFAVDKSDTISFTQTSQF
Experimental: as §1
The standard bath solution (ND 96) contained 96 mM NaCl, 2 mM KCl, 1.8 mM CaCl2, 1.0 mM MgCl2 and 5 mM HEPES pH 7.4 The recording chamber was perfused with bath solution. Current responses of Xenopus laevis oocytes injected with cRNA coding for the excitatory amino acid carrier protein and fragments thereof to bath applied 100 μM substrates are illustrated in FIG. 7.
Example 7 illustrates the application of the electrophysiological features of the excitatory amino acid carrier protein, derived from rabbit, described in Example 6 in the screening of drugs to enhance or inhibit the protein. The Xenopus laevis oocytes was injected with rabbit derived excitatory amino acid carrier cRNA and processed as described in Example 6. […] Robinson, M. B., Hunter-Ensor, M. & Sinor, J., "Pharmacologically distinct sodium-dependentL-[3H]glutamate transport process in rat brain," Brain Research 544:196-202 (1991).

[3] = target: T2, Human High Affinity Glutamate Transporter HEAAC1 (Homo sapiens, UniProt P43005); experiment: substrate-evoked currents in oocytes expressing human carrier; conditions: for inward currents induced: AAD at 50 μM, DHK up to 1 mM
T2 sequence (P43005 1-524 V96L/K170N/P172A/L260H): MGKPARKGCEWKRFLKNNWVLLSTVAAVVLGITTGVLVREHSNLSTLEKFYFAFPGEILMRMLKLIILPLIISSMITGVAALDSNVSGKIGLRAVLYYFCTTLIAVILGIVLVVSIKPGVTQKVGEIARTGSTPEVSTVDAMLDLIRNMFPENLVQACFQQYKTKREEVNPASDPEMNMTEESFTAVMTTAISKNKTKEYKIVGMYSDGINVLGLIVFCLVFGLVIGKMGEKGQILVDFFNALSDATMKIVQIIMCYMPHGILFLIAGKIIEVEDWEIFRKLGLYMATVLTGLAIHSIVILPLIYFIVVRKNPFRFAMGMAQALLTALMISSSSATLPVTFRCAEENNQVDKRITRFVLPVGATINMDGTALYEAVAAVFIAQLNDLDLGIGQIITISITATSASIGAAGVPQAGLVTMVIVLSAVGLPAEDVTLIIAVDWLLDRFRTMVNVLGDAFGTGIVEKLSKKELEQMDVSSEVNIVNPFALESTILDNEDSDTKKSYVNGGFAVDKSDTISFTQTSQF
Description: (§2) The glutamate evoked currents were first measured without addition of inhibitor. […] Calculation of KI values was based on the kinetics for competitive inhibition.
Oocytes were used for two-microelectrode voltage-clamping as described above and command potentials were applied and controlled by an IBM-compatible computer via the software CLAMPEX from pCLAMP (version 5.5 Axon Instruments, CA). The oocyte membrane was held at -50 mV and pulsed to the test potential for […] followed by a 1 sec interpulse interval at the holding potential of -50 mV before application of the next pulse. Current was low-pass filtered at […], digitized at 200 μsec and saver on the computer. Steady-state currents were obtained by averaging the current between 72 and 76 msec.

[4] = tested on: synaptosomal L-glutamate uptake; conditions: Robinson et al. / previously known; cited from earlier work
[5] = target: T2, Human High Affinity Glutamate Transporter HEAAC1; experiment: inhibition of L-glutamate-evoked currents in oocytes expressing human carrier; format: cell-based; set-up: expressed in transfected cells; host or cells: Xenopus laevis oocytes (cRNA injection; human kidney clone K-3); conditions: for inhibition of the current induced by L-glutamate: L-glutamate 10-1,000 μM, DHK 1 mM; for order of sensitivity to inhibitors based on IC50 values: current induced by 100 μM L-glutamate
Description: as §2

[6] = substrate: N[C@@H](CCCC(=O)O)C(=O)O; experiment: cells, lysate or membranes; conditions: other: HEAAC1, human
[7] = substrate: N[C@H](C(=O)O)[C@H](O)C(=O)O; experiment: cells, lysate or membranes; conditions: other: HEAAC1, human
Description: (§3) Oocytes were used for two-microelectrode voltage-clamping as described above and command potentials were applied and controlled by an IBM-compatible computer via the software CLAMPEX from pCLAMP (version 5.5 Axon Instruments, CA). The oocyte membrane was held at -50 mV and pulsed to the test potential for msec followed by a 1 sec interpulse interval at the holding potential of -50 mV before application of the next pulse. Current was low-pass filtered at 50 kHz, digitized at 200 μsec and saver on the computer. Steady-state currents were obtained by averaging the current between 72 and 76 msec.

[8] = substrate: O=C(O)[C@H]1CN[C@H](C(=O)O)C1; experiment: cells, lysate or membranes; conditions: other: HEAAC1, human
Description: as §3

[9] = substrate: N[C@@H](CC(=O)O)C(=O)O; experiment: cells, lysate or membranes; conditions: other: EAAC1, rabbit derived; pH 7.4
Experimental: (§4) The membrane current was measured in standard bath solution (ND 96) at -60 mV holding potential. Substrates were applied at the bars.
(§5) FIG. 9 graphically depicts the changes in glutamate induced current measured in nanoampere (nA) at concentrations ranging from 1 μM to 1 mM glutamate. The results were fitted to a Michaelis-Menton curve. An Eadie-Hofstee plot is depicted in the inset.
(§6) Xenopus laevis oocytes were injected with excitatory amino acid carrier cRNA derived from rabbit (25 ng/oocyte) and used for two microelectrode voltage clamp experiments. Recordings were performed at -60 mV in regular ND 96 saline (96 mM NaCl, 2 mM KCl, 1.8 mM CaCl2, 1.0 mM MgCl2 and 5 mM Hepes pH 7.4).

[10] = substrate: N[C@@H](CCC(=O)O)C(=O)O; experiment: cells, lysate or membranes; conditions: pH 7.4
[11] = substrate: N[C@H](CC(=O)O)C(=O)O; experiment: cells, lysate or membranes; conditions: other: EAAC1, rabbit derived; pH 7.4
Experimental: as §4, §5, §6

[K+] [K^+, potassium ion]
inhibition of L-glutamate evoked current by external K+ [1]: greater degree of inhibition of current at higher K^+ concentration

CC(C)[C@H]1CN[C@H](C(=O)O)[C@H]1CC(=O)O [DHK, dihydrokainate]
IC50 ([2]; rabbit EAAC1, value in mM, read-out: IC50, inhibition of glutamate induced inward currents): > 1 mM | inward currents induced [3]: did not induce significant currents | inhibition of synaptosomal L-glutamate uptake [4]: less effective inhibitors | inhibition of the current induced by L-glutamate [5]: did not inhibit the current efficiently | order of sensitivity to inhibitors based on IC50 values [5]: THA>PDC>>AAA>DHK | inhibition at 1000 µM ([5]; read-out: inhibition at 1 mM DHK (IC50)): 6.7%

N[C@@H](CCCC(=O)O)C(=O)O [AAD, L-α-aminoadipate]
IC50 [2]: 0.165 mM | Ki ([5]; HEAAC1, based on the kinetics for competitive inhibition): ~20 µM | order of sensitivity to inhibitors based on IC50 values [5]: THA>PDC>>AAA>DHK

N[C@H](C(=O)O)[C@H](O)C(=O)O (relative stereo) [THA, DL-threo-β-hydroxyaspartate]
IC50 [2]: 0.0071 mM | substrate of the carrier / effect on transport [3]: transport substrates | inward currents induced [3]: large inward currents | inhibition of synaptosomal L-glutamate uptake [4]: strong inhibitor | IC50 ([5]; IC50, L-Glu = 100 um, HEAAC1, L-Glu = 100 um): 28 ± 0.8 µM | inhibition of the current induced by L-glutamate [5]: potent inhibitors | order of sensitivity to inhibitors based on IC50 values [5]: THA>PDC>>AAA>DHK

B1: Human High Affinity Glutamate Transporter HEAAC1 (Homo sapiens) (protein)
chain: MGKPARKGCEWKRFLKNNWVLLSTVAAVVLGITTGVLVREHSNLSTLEKFYFAFPGEILMRMLKLIILPLIISSMITGVAALDSNVSGKIGLRAVLYYFCTTLIAVILGIVLVVSIKPGVTQKVGEIARTGSTPEVSTVDAMLDLIRNMFPENLVQACFQQYKTKREEVNPASDPEMNMTEESFTAVMTTAISKNKTKEYKIVGMYSDGINVLGLIVFCLVFGLVIGKMGEKGQILVDFFNALSDATMKIVQIIMCYMPHGILFLIAGKIIEVEDWEIFRKLGLYMATVLTGLAIHSIVILPLIYFIVVRKNPFRFAMGMAQALLTALMISSSSATLPVTFRCAEENNQVDKRITRFVLPVGATINMDGTALYEAVAAVFIAQLNDLDLGIGQIITISITATSASIGAAGVPQAGLVTMVIVLSAVGLPAEDVTLIIAVDWLLDRFRTMVNVLGDAFGTGIVEKLSKKELEQMDVSSEVNIVNPFALESTILDNEDSDTKKSYVNGGFAVDKSDTISFTQTSQF
Km [6]: 2400 ± 0.6 µM | Km [7]: 34 ± 6.4 µM | Km [8]: 23 ± 3.7 µM

B2: excitatory amino acid carrier protein (EAAC1) derived from rabbit (Oryctolagus cuniculus) (protein)
chain: MGKPARKGCDSKRFLKNNWLLLSTVVAVVLGIVIGVLVREYSNLSTLDKFYFAFPGEILMRMLKLVILPLIVSSMITGVAALDSNVSGKIGLRAVLYYFCTTIIAVILGIVLVVSIKPGVTQKVDEIDRTGSTPEVSTVDAMLDLIRNMFPENLVQACFQQYKTTREEVTASDDTGKNGTEESVTAVMTTAVSENRTKEYRVVGLYSDGINVLGLIVFCLVFGLVIGKMGEKGQILVDFFNALSDATMKIVQIIMCYMPLGILFLIAGKIIEVEDWEIFRKLGLYMVTVLSGLAIHSIVILPLIYFIVVRKNPFRFAMGMTQALLTALMISSSSATLPVTFRCAEEKNRVDKRITRFVLPVGATINMDGTALYEAVAAVFIAQLNDMDLSIGQIITISVTATAASIGAAGVPQAGLVTMVIVLSAVGLPAEDVTLIIAVDWLLDRFRTVVNVLGDAFGTGIVEKLSKKELEQMDVSSEVNIVNPFALESATLDNEDSDTKKSYINGGFAVDKSDTISFTQTSQF
Km [9]: 6.5 µM | Km ([10]; other: EAAC1, rabbit derived): 12.1 µM | Km ([10]; other: glutamate-induced current, rabbit EAAC1 in oocytes): 12.2 µM | Km [11]: 7.5 µM
